Experimental data reported in the supplement of paper PMC10307832.

Experiments:
Experiment in all cases: relative viability (nuclei count vs DMSO), 5 days (fraction); higher = more cells survive
GSK-J4 + Crizotinib = compound: CCOC(=O)CCNc1cc(N2CCc3ccccc3CC2)nc(-c2ccccn2)n1 [GSK-J4] + C[C@@H](Oc1cc(-c2cnn(C3CCNCC3)c2)cnc1N)c1c(Cl)ccc(F)c1Cl [Crizotinib] (partner 1 µM)
How it was run: (§1)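 Lung cancer cell lines in 1536-well plates got either a single drug or a fixed anchor-drug dose together with five library-drug doses (not always all listed) in √10 steps, by pin tool, on the day after seeding. Nuclei were counted after 5 days, and relative viability is the treated-to-vehicle ratio of nuclei counts. Values are medians of duplicate plates.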

AZ3146 + Tozasertib = compound: CN1CCC(CC1)OC2=CC(=C(C=C2)NC3=NC=C4C(=N3)N(C(=O)N4C)C5CCCC5)OC [AZ3146] + Cc1cc(Nc2cc(N3CCN(C)CC3)nc(Sc3ccc(NC(=O)C4CC4)cc3)n2)n[nH]1 [Tozasertib] (partner 0.1 µM)
How it was run: as §1

AZ3146 + Vorinostat = compound: CN1CCC(CC1)OC2=CC(=C(C=C2)NC3=NC=C4C(=N3)N(C(=O)N4C)C5CCCC5)OC [AZ3146] + O=C(CCCCCCC(=O)Nc1ccccc1)NO [Vorinostat] (partner 1 µM)
How it was run: as §1

GSK-J4 + Decitabine = compound: CCOC(=O)CCNc1cc(N2CCc3ccccc3CC2)nc(-c2ccccn2)n1 [GSK-J4] + Nc1ncn([C@H]2C[C@H](O)[C@@H](CO)O2)c(=O)n1 [Decitabine] (partner 2 µM)
How it was run: as §1

| Cell Line | relative viability (GSK-J4 + Crizotinib; first compound 0.5 µM) | relative viability (GSK-J4 + Crizotinib; first compound 1.581 µM) | relative viability (GSK-J4 + Crizotinib; first compound 5 µM) | relative viability (GSK-J4 + Crizotinib; first compound 15.81 µM) | relative viability (GSK-J4 + Crizotinib; first compound 50 µM) | relative viability (AZ3146 + Tozasertib; first compound 0.08 µM) | relative viability (AZ3146 + Tozasertib; first compound 0.253 µM) | relative viability (AZ3146 + Tozasertib; first compound 0.8 µM) | relative viability (AZ3146 + Tozasertib; first compound 2.53 µM) | relative viability (AZ3146 + Tozasertib; first compound 8 µM) | relative viability (AZ3146 + Vorinostat; first compound 0.08 µM) | relative viability (AZ3146 + Vorinostat; first compound 0.253 µM) | relative viability (AZ3146 + Vorinostat; first compound 0.8 µM) | relative viability (AZ3146 + Vorinostat; first compound 2.53 µM) | relative viability (AZ3146 + Vorinostat; first compound 8 µM) | relative viability (GSK-J4 + Decitabine; first compound 0.5 µM) | relative viability (GSK-J4 + Decitabine; first compound 1.581 µM) | relative viability (GSK-J4 + Decitabine; first compound 5 µM) | relative viability (GSK-J4 + Decitabine; first compound 15.81 µM) | relative viability (GSK-J4 + Decitabine; first compound 50 µM) |
| --- | --- | --- | --- | --- | --- | --- | --- | --- | --- | --- | --- | --- | --- | --- | --- | --- | --- | --- | --- | --- |
| NCI-H1563 | 0.888 | 0.779 | 0.684 | 0.837 | 0.857 | – | – | – | – | – | – | – | – | – | – | – | – | – | – | – |
| HOP-62 | 0.798 | 1 | 0.965 | 0.994 | 0.847 | 0.325 | 0.447 | 0.345 | 0.348 | 0.291 | 0.337 | 0.664 | 0.598 | 0.699 | 0.385 | 0.257 | 0.233 | 0.2 | 0.193 | 0.225 |
| NCI-H1651 | 0.854 | 0.737 | 0.92 | 0.817 | 0.85 | 0.597 | 0.793 | 0.465 | 0.552 | 0.297 | 0.428 | 0.519 | 0.477 | 0.512 | 0.568 | 0.599 | 0.622 | 0.599 | 0.537 | 0.508 |
| HCC-366 | 0.523 | 0.405 | – | 0.395 | 0.445 | 0.0936 | 0.1 | 0.0606 | 0.044 | 0.0336 | 0.192 | 0.408 | 0.352 | 0.278 | 0.14 | 0.33 | 0.283 | – | 0.283 | 0.277 |
| EMC-BAC-2 | 0.712 | 0.695 | 0.726 | 0.743 | 0.733 | 0.222 | 0.269 | 0.307 | 0.277 | 0.233 | – | – | 0.519 | 0.534 | 0.368 | 1 | 0.862 | – | 0.947 | 0.869 |
| NCI-H2228 | 0.609 | 0.345 | 0.497 | 0.535 | 0.423 | 0.224 | 0.385 | 0.292 | 0.198 | 0.18 | 0.589 | 0.695 | 0.874 | 0.956 | 0.674 | – | – | – | – | – |
| LK-2 | 0.256 | 0.212 | 0.203 | 0.191 | 0.244 | 0.175 | 0.186 | 0.188 | 0.157 | 0.196 | 0.159 | 0.243 | 0.326 | 0.388 | 0.389 | 0.222 | 0.283 | 0.447 | 0.262 | 0.338 |
| NCI-H1650 | 0.847 | 0.962 | 0.862 | 0.935 | 0.721 | 0.345 | 0.349 | 0.242 | 0.314 | 0.255 | 0.578 | 0.392 | 0.563 | 0.554 | 0.475 | 0.522 | 0.343 | 0.423 | 0.416 | 0.294 |
| Calu-6 | 0.726 | 0.618 | 0.828 | 0.76 | 0.685 | – | – | – | – | – | – | – | – | – | – | – | – | – | – | – |
| ABC-1 | 1.03 | 0.953 | 1.17 | 0.81 | 0.343 | 0.173 | 0.178 | 0.181 | 0.135 | 0.2 | 0.618 | 1.02 | 1.53 | 1.2 | 1.16 | 1 | 1.16 | 1.05 | 0.883 | 0.795 |
